This is an account of results in ChEMBL document CHEMBL6134781, “In vitro identification of oridonin hybrids as potential anti-TNBC agents inducing cell cycle arrest and apoptosis by regulation of p21, γH2AX and cleaved PARP” (RSC Med Chem, 2024).

Assay [1] concerns MDA-MB-468. Put plainly: Induction of apoptosis in human MDA-MB-468 cells assessed as viable cells at 3 uM incubated for 24 hrs by Annexin V-FITC/PI staining based flow cytometry (reference value: 88.9 %). To be noted: read-out: Activity. It counts as functional. (In general: Flow cytometry measures light scatter and fluorescence of single cells or particles in a stream.)
In assay [2] the test system is HCC1937. In words: Induction of apoptosis in human HCC1937 cells assessed as increase in cleaved PARP-1 level incubated for 24 hrs by Western blot analysis. It counts as functional, cell-based. Particulars: dose 1-3 µM.
The test system of assay [3] is HCC1937. In words: Cytotoxicity against human HCC1937 cells assessed as inhibition of cell viability incubated for 72 hrs by SRB assay. It counts as functional, cell-based. To be noted: HCC1937, 72 h. (In general: Sulforhodamine B stains cellular protein and so reports cell mass.)
Assay [4] concerns MDA-MB-468. Put plainly: Induction of cell cycle arrest in human MDA-MB-468 cells assessed as decrease in accumulation at S phase incubated for 16 hrs by PI staining based flow cytometry. It counts as functional. Particulars: dose 1-3 µM.
For assay [5], the system named is HCC1806. Put plainly: Induction of cell cycle arrest in human HCC1806 cells assessed as accumulation at G2/M phase incubated for 16 hrs by PI staining based flow cytometry. It counts as functional. To be noted: dose 1-3 µM.
Assay [6] concerns HCC1937. Put plainly: Induction of apoptosis in human HCC1937 cells assessed as necrotic cells at 3 uM incubated for 24 hrs by Annexin V-FITC/PI staining based flow cytometry (reference value: 0.58 %). It counts as functional.
Assay [7] relates to MDA-MB-231. Put plainly: Induction of apoptosis in human MDA-MB-231 cells assessed as increase in cleaved PARP-1 level incubated for 16 hrs by Western blot analysis. To be noted: dose 1-3 µM. It counts as functional, cell-based. (Immunoblotting shows a protein as a band on a membrane.)
Assay [8] concerns MDA-MB-468. Put plainly: Induction of apoptosis in human MDA-MB-468 cells assessed as necrotic cells at 1 uM incubated for 24 hrs by Annexin V-FITC/PI staining based flow cytometry (reference value: 4.11 %). It counts as functional.
Assay [9] has as its system HCC1937. Put plainly: Induction of apoptosis in human HCC1937 cells assessed as viable cells at 3 uM incubated for 24 hrs by Annexin V-FITC/PI staining based flow cytometry (reference value: 97.2 %). It counts as functional. Particulars: read-out: Activity.
For assay [10], the system named is MDA-MB-468. In words: Induction of apoptosis in human MDA-MB-468 cells assessed as early apoptotic cells at 1 uM incubated for 24 hrs by Annexin V-FITC/PI staining based flow cytometry (reference value: 3.17 %). It counts as functional.
The test system of assay [11] is HCC1806. In words: Induction of apoptosis in human HCC1806 cells assessed as late apoptotic cells at 3 uM incubated for 24 hrs by Annexin V-FITC/PI staining based flow cytometry (reference value: 1.48 %). It counts as functional.
Assay [12] relates to HCC1806. Put plainly: Induction of cell cycle arrest in human HCC1806 cells assessed as increase in p21 level incubated for 16 hrs by Western blot analysis. It counts as functional, cell-based. Particulars: dose 1-3 µM.
Assay [13] concerns MDA-MB-468. Put plainly: Cytotoxicity against human MDA-MB-468 cells assessed as inhibition of cell viability incubated for 72 hrs by SRB assay. It counts as functional, cell-based. Particulars: MDA-MB-468, 72 h.
In assay [14] the test system is MDA-MB-231. In words: Induction of apoptosis in human MDA-MB-231 cells assessed as necrotic cells at 1 uM incubated for 16 hrs by Annexin V-FITC/PI staining based flow cytometry (reference value: 3.89 %). It counts as functional.
Assay [15] concerns MDA-MB-231. Put plainly: Cytotoxicity against human MDA-MB-231 cells assessed as inhibition of cell viability incubated for 72 hrs by SRB assay. It counts as functional, cell-based. To be noted: MDA-MB-231, 72 h.
In assay [16] the test system is HCC1937. In words: Induction of apoptosis in human HCC1937 cells assessed as viable cells at 1 uM incubated for 24 hrs by Annexin V-FITC/PI staining based flow cytometry (reference value: 97.2 %). It counts as functional. Particulars: read-out: Activity.
The test system of assay [17] is MDA-MB-468. In words: Induction of apoptosis in human MDA-MB-468 cells assessed as late apoptotic cells at 1 uM incubated for 24 hrs by Annexin V-FITC/PI staining based flow cytometry (reference value: 3.84 %). It counts as functional.
For assay [18], the system named is MDA-MB-231. In words: Induction of apoptosis in human MDA-MB-231 cells assessed as late apoptotic cells at 3 uM incubated for 16 hrs by Annexin V-FITC/PI staining based flow cytometry (reference value: 4.62 %). It counts as functional.
For assay [19], the system named is HCC1806. Put plainly: Induction of apoptosis in human HCC1806 cells assessed as necrotic cells at 1 uM incubated for 24 hrs by Annexin V-FITC/PI staining based flow cytometry (reference value: 0.049 %). It counts as functional.
For assay [20], the system named is MDA-MB-231. In words: Induction of apoptosis in human MDA-MB-231 cells assessed as viable cells at 1 uM incubated for 16 hrs by Annexin V-FITC/PI staining based flow cytometry (reference value: 89.5 %). To be noted: read-out: Activity. It counts as functional.

With `C=C1C(=O)[C@]23[C@H](OC(=O)C45CC6CC(CC(C6)C4)C5)[C@H]1CC[C@H]2[C@@]12CO[C@]3(O)[C@@H](O)[C@@H]1C(C)(C)CC[C@@H]2O`, the viability at 3 µM with MDA-MB-468 [1] was 66.3%; with HCC1937 [9], 71.1%. Further, the Activity result was “Dose-dependent-effect” in the assay with HCC1937 [2]; “Dose-dependent-effect” in the assay with MDA-MB-468 [4]; “Dose-dependent-effect” with HCC1806 [5]; 0.61% in the assay with HCC1937 [6]; “Dose-dependent-effect” in the assay on MDA-MB-231 [7]; 0.22% with MDA-MB-468 [8]. In addition, the Activity with MDA-MB-468 [10] was 5.18%; in the assay with HCC1806 [11], 14.2%; in the assay with HCC1806 [12], “Dose-dependent-effect”; in the assay with MDA-MB-231 [14], 0.32%; in the assay with MDA-MB-468 [17], 7.11%; in the assay on MDA-MB-231 [18], 20.4%. In addition, in the assay on HCC1806 [19], the Activity turned out to be 0.088%. Moreover, the IC50 is 620 nM in the assay on HCC1937 [3], 410 nM with MDA-MB-468 [13] and 400 nM with MDA-MB-231 [15]. In addition, the viability at 1 µM in the assay on HCC1937 [16] stood at 96.1%; in the assay with MDA-MB-231 [20], 93.5%.

As usually defined, the IC50 is the concentration that inhibits the measured activity by half.
